Results: patent US20050282743A1, “Molecular interactions in cells” (Arbor Vita Corporation, priority 2001, published 2005)
Ends that are not written are not given here. Peptide text beside a SMILES is read from it. * marks the point of attachment. Biotin = O=C1N[C@H]2[C@H](CS[C@H]2CCCCC(=O)*)N1

Columns and labels:
[1] = target: T1, PDZ protein (GST-PDZ fusion) (Homo sapiens, UniProt Q5TCQ9); assay: G' assay (10 uM PL peptide), results of TABLE 7 and TABLE 12; assay type: binding
T1 construct: made in house; host or cells: E. coli (DH5alpha, BL21 or JM109)
T1 sequence (Q5TCQ9 1-1481): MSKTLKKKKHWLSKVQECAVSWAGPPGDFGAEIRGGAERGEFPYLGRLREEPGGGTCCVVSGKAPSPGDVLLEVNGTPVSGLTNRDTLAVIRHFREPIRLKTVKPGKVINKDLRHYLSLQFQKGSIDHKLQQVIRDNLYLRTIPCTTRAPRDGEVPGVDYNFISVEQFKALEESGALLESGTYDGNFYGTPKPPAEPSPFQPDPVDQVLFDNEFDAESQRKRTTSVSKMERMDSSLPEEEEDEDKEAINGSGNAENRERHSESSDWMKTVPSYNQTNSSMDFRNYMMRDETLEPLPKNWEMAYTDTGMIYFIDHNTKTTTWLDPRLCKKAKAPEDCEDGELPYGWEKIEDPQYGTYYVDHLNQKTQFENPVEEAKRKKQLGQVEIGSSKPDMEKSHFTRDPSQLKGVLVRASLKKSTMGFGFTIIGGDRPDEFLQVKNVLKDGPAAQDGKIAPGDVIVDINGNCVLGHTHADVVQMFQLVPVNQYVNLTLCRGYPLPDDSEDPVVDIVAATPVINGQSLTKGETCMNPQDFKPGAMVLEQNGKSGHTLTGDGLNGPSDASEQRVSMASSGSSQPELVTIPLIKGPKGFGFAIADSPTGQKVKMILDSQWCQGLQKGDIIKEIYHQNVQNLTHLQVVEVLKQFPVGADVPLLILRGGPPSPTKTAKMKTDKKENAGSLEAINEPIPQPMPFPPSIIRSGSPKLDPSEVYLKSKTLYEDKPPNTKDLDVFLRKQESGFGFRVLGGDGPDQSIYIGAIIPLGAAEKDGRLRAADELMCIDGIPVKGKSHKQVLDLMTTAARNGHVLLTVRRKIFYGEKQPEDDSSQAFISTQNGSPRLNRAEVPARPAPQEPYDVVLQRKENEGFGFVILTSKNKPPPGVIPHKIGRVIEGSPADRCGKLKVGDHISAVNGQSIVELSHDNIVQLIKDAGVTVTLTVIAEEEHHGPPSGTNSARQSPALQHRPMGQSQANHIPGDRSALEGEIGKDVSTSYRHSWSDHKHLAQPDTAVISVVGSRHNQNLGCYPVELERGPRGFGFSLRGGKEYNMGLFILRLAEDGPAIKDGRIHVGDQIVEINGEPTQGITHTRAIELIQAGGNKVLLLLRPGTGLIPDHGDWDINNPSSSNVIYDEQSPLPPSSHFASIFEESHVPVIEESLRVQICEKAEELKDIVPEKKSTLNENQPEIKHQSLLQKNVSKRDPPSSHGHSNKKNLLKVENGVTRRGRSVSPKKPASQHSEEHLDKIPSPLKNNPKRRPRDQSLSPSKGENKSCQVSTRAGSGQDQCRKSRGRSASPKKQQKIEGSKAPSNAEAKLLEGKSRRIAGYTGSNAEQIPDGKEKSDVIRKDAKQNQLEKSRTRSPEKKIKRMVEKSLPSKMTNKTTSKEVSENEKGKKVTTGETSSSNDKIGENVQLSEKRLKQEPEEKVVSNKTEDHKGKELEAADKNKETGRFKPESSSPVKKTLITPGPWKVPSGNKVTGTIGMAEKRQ
How it was run: (§1)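 Biotin-PL peptide (N-term label), 10 uM vs GST-PDZ; protein 5 ug/ml by default. A450 nm binned: 1 = 0-1, 2 = 1-2, 3 = 2-3, 4 = 3-4, 5 = >4 on >2 repeats, 0 = no binding.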

[2] = target: T2, PDZ protein (GST-PDZ fusion) (Homo sapiens, UniProt Q6P0Q8); assay: as above; assay type: binding
T2 construct: made in house; host or cells: E. coli (DH5alpha, BL21 or JM109)
T2 sequence (Q6P0Q8 whole entry, the tested form may be a part): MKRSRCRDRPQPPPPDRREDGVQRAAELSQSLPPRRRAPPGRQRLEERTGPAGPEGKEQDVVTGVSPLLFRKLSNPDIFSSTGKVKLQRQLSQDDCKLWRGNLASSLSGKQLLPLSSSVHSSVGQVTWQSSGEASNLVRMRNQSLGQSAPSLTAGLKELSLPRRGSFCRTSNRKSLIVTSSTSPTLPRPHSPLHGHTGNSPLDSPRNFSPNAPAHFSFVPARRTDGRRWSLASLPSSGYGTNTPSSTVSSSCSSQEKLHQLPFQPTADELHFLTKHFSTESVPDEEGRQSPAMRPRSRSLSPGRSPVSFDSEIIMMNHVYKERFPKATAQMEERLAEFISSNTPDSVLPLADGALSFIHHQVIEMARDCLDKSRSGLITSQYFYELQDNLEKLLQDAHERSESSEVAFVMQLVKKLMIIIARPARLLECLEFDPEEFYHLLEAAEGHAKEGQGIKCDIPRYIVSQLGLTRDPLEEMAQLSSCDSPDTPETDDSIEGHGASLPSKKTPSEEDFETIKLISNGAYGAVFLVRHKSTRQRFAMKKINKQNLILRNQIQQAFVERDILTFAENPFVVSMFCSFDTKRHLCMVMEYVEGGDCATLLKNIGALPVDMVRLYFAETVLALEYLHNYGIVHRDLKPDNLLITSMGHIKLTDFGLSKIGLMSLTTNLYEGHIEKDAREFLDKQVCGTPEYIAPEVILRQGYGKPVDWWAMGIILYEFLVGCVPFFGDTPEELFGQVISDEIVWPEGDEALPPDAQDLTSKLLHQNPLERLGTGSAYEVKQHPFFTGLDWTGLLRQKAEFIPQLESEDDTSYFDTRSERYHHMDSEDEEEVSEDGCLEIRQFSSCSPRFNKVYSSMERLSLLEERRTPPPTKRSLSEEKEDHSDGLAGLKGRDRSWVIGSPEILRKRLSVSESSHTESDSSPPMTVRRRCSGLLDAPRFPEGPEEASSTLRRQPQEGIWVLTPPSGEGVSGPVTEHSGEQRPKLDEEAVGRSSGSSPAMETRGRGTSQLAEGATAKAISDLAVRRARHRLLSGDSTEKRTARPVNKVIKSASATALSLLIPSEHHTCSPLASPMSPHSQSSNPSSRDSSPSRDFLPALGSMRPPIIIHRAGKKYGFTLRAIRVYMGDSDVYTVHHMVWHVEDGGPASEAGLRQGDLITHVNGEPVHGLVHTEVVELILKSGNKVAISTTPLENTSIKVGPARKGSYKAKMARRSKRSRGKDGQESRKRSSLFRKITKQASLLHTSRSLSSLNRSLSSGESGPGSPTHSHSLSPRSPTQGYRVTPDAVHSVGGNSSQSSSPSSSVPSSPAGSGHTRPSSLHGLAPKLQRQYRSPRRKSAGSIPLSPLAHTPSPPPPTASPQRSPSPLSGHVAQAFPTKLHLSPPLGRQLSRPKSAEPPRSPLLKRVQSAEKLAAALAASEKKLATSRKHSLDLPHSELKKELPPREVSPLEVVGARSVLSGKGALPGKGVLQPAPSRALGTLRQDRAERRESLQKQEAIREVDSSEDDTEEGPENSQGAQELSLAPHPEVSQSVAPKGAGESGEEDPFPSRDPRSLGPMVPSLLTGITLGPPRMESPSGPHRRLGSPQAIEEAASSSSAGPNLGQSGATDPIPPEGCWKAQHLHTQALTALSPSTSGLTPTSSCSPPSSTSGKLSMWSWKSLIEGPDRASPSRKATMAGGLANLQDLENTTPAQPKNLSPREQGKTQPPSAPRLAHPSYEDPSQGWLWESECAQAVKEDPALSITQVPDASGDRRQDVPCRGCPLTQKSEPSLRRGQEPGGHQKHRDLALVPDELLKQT
How it was run: as §1

Compound | Classification ([1]; PDZ KIAA1634, PDZ Domain 1) | Classification ([1]; PDZ KIAA1634, PDZ Domain 2) | further results
RNIEEVYVGGKQVVPFSSSV (Biotin-RNIEEVYVGGKQVVPFSSSV) [Nedasin (s-form)] | 1 (A450 nm 0-1) |  | Classification ([2]; PDZ KIAA807 (domain not given)): 2 (A450 nm 1-2)
GGGGGSGGGGGSGIESVKI [GLUR2 (glutamate receptor 2-modified)] | 4 (A450 nm 3-4) |  | Classification ([2]; PDZ KIAA0807(S), PDZ Domain 1): 1 (A450 nm 0-1)
CC(C)C[C@H](NC(=O)CNC(=O)[C@@H](NC(=O)[C@H](CO)NC(=O)[C@H](CC(N)=O)NC(=O)[C@H](Cc1ccccc1)NC(=O)CNC(=O)[C@H](C)NC(=O)[C@H](C)NC(=O)[C@H](Cc1ccccc1)NC(=O)[C@@H](NC(=O)CCCC[C@@H]1SC[C@@H]2NC(=O)N[C@@H]21)[C@@H](C)O)[C@@H](C)O)C(=O)N1CCC[C@H]1C(=O)N[C@@H](Cc1c[nH]cn1)C(=O)N[C@@H](CO)C(=O)N[C@H](C(=O)N[C@H](C(=O)N[C@@H](CCCNC(=N)N)C(=O)N[C@H](C(=O)O)C(C)C)[C@@H](C)O)[C@@H](C)O [Neuroligin] (Biotin-TFAAGFNSTGLPHSTTRV-OH; C-terminus assumed) | 4 (A450 nm 3-4) | 2 (A450 nm 1-2) | Classification ([2]; PDZ KIAA807): 3 (A450 nm 2-3)
CC[C@H](C)[C@H](NC(=O)[C@H](CCC(=O)O)NC(=O)[C@H](CO)NC(=O)[C@H](CCC(=O)O)NC(=O)[C@H](CCCNC(=N)N)NC(=O)[C@H](CCCNC(=N)N)NC(=O)[C@H](CC(C)C)NC(=O)[C@@H]1CCCN1C(=O)[C@H](CCCNC(=N)N)NC(=O)[C@@H]1CCCN1C(=O)[C@H](CCC(=O)O)NC(=O)[C@H](CC(C)C)NC(=O)[C@@H]1CCCN1C(=O)[C@@H](NC(=O)[C@H](CO)NC(=O)[C@H](C)NC(=O)[C@H](CCC(N)=O)NC(=O)[C@H](CC(N)=O)NC(=O)[C@H](Cc1c[nH]cn1)NC(=O)[C@H](CC(C)C)NC(=O)CCCC[C@@H]1SC[C@@H]2NC(=O)N[C@@H]21)C(C)C)C(=O)O [Kir2.1 (inwardly rect. K+ channel)] (Biotin-LHNQASVPLEPRPLRRESEI-OH; C-terminus assumed) | 1 (A450 nm 0-1) |  | 
QATSRNGHSARQHVVADTEL (Biotin-QATSRNGHSARQHVVADTEL) [CD34] |  |  | Classification ([1]; PDZ KIAA1634, PDZ Domain 5): 1 (A450 nm 0-1)
LASKSAEEGKQIPDSLSTDL (Biotin-LASKSAEEGKQIPDSLSTDL) [Dock2] |  |  | Classification ([1]; PDZ KIAA1634, PDZ Domain 5): 1 (A450 nm 0-1)
SLKPGTVLPPPPYRHRNTVV (Biotin-SLKPGTVLPPPPYRHRNTVV) [ErbB-4 receptor] |  | 1 (A450 nm 0-1) | 
CC[C@H](C)[C@H](NC(=O)[C@H](CCC(=O)O)NC(=O)[C@H](CC(N)=O)NC(=O)[C@H](CCCNC(=N)N)NC(=O)[C@H](Cc1ccccc1)NC(=O)[C@H](CC(N)=O)NC(=O)[C@H](CO)NC(=O)[C@H](CC(N)=O)NC(=O)[C@H](CCC(=O)O)NC(=O)[C@H](CO)NC(=O)[C@H](CC(=O)O)NC(=O)[C@H](CO)NC(=O)[C@@H](NC(=O)[C@@H](NC(=O)[C@H](CC(=O)O)NC(=O)[C@H](CCCCN)NC(=O)CCCC[C@@H]1SC[C@@H]2NC(=O)N[C@@H]21)[C@@H](C)CC)[C@@H](C)O)C(=O)N[C@@H](CCC(N)=O)C(=O)N[C@@H](CO)C(=O)N[C@@H](CC(C)C)C(=O)N[C@H](C(=O)O)C(C)C [CD95] (Biotin-KDITSDSENSNFRNEIQSLV-OH; C-terminus assumed) | 1 (A450 nm 0-1) | 1 (A450 nm 0-1) | Classification ([1]; PDZ KIAA1634, PDZ Domain 4): 1 (A450 nm 0-1)
